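Test compounds were applied to cells in 96-well plates for 48 hours at 5 doses. GI50 marks 50% less growth.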 The source made the active and inactive calls. Cut-off read from the data, not from the text of the source: active = GI50 up to about 1.1 µM and inactive = higher. Where a SMILES comes first, the peptide text is derived from it. [ ]: non-standard residue; d: D form. The star is where a group is joined. ξ: configuration not given here. ξD = NC(CC(=O)O)C(=O)O; Ac3c = NC1(C(=O)O)CC1; Boc = CC(C)(C)OC(=O)*; OBn = c1ccc(CO*)cc1
Columns and labels:
Experiment in all cases: NCI-60 cell line screen, 48 h
786-0 = tested on: 786-0
A498 = tested on: A498
ACHN = tested on: ACHN
HCT-116 = tested on: HCT-116
HOP-62 = tested on: HOP-62
HOP-92 = tested on: HOP-92
IGROV-1 = tested on: IGROV-1
MCF7 = tested on: MCF7
MDA-MB-231 = tested on: MDA-MB-231
Malme-3M = tested on: Malme-3M
NCI-H226 = tested on: NCI-H226
OVCAR-3 = tested on: OVCAR-3
OVCAR-5 = tested on: OVCAR-5
RXF 393 = tested on: RXF 393
SF-268 = tested on: SF-268
SF-539 = tested on: SF-539
SK-MEL-2 = tested on: SK-MEL-2
U-251 = tested on: U-251
UACC-62 = tested on: UACC-62
SR = tested on: SR

| SMILES | GI50 (786-0) | GI50 (A498) | GI50 (ACHN) | GI50 (HCT-116) | GI50 (HOP-62) | GI50 (HOP-92) | GI50 (IGROV-1) | GI50 (MCF7) | GI50 (MDA-MB-231) | GI50 (Malme-3M) | GI50 (NCI-H226) | GI50 (OVCAR-3) | GI50 (OVCAR-5) | GI50 (RXF 393) | GI50 (SF-268) | GI50 (SF-539) | GI50 (SK-MEL-2) | GI50 (U-251) | GI50 (UACC-62) | GI50 (SR) |
| --- | --- | --- | --- | --- | --- | --- | --- | --- | --- | --- | --- | --- | --- | --- | --- | --- | --- | --- | --- | --- |
| O=S(=O)(O)C(Cc1nc2ccccc2[nH]1)S(=O)(=O)OCCC1S(=O)(=O)OCCOS1(=O)=O (stereo not drawn) | > 100 µM (inactive) | > 100 µM (inactive) | > 100 µM (inactive) | > 100 µM (inactive) | > 100 µM (inactive) | > 100 µM (inactive) | > 100 µM (inactive) | > 100 µM (inactive) | > 100 µM (inactive) | > 100 µM (inactive) | > 100 µM (inactive) | > 100 µM (inactive) | > 100 µM (inactive) | > 100 µM (inactive) | > 100 µM (inactive) | > 100 µM (inactive) | > 100 µM (inactive) | > 100 µM (inactive) | > 100 µM (inactive) |  |
| C[N+](C)(C)c1nc(N)nc2c1ncn2C1OC(CO)C(O)C1O (stereo not drawn) | > 100 µM (inactive) | > 100 µM (inactive) | > 100 µM (inactive) | > 100 µM (inactive) | > 100 µM (inactive) | > 100 µM (inactive) | > 100 µM (inactive) | > 100 µM (inactive) | > 100 µM (inactive) | > 100 µM (inactive) |  | > 100 µM (inactive) | > 100 µM (inactive) | > 100 µM (inactive) | > 100 µM (inactive) | > 100 µM (inactive) | > 100 µM (inactive) | > 100 µM (inactive) | > 100 µM (inactive) | > 100 µM (inactive) |
| COc1cccc(-c2cc(O)c3c(C)ccnc3n2)c1 | 0.0449 µM (active) | 0.0344 µM (active) | 0.0483 µM (active) | 0.0392 µM (active) | 0.0463 µM (active) |  | 0.0493 µM (active) | 0.0741 µM (active) | 0.279 µM (active) | < 0.01 µM (active) | 0.0272 µM (active) | 0.0186 µM (active) | 0.0748 µM (active) | 0.0284 µM (active) | 0.0439 µM (active) | 0.0272 µM (active) | 0.0695 µM (active) | 0.036 µM (active) | 0.0267 µM (active) | < 0.01 µM (active) |
| O=C(CN1C(=O)c2ccccc2C1=O)NC1(C(=O)O)CCCC1 | > 100 µM (inactive) | > 100 µM (inactive) | > 100 µM (inactive) | > 100 µM (inactive) | > 100 µM (inactive) |  | > 100 µM (inactive) | > 100 µM (inactive) | > 100 µM (inactive) | > 100 µM (inactive) | > 100 µM (inactive) | > 100 µM (inactive) | > 100 µM (inactive) | > 100 µM (inactive) | > 100 µM (inactive) |  | > 100 µM (inactive) | > 100 µM (inactive) | > 100 µM (inactive) | > 100 µM (inactive) |
| c1ccc(-c2cc(-c3cc(-c4ccccc4)[nH]n3)[nH]n2)cc1 | > 100 µM (inactive) | > 100 µM (inactive) | > 100 µM (inactive) | > 100 µM (inactive) | > 100 µM (inactive) |  | > 100 µM (inactive) | > 100 µM (inactive) | > 100 µM (inactive) | > 100 µM (inactive) | > 100 µM (inactive) | > 100 µM (inactive) | > 100 µM (inactive) | > 100 µM (inactive) | > 100 µM (inactive) | > 100 µM (inactive) | > 100 µM (inactive) | > 100 µM (inactive) | > 100 µM (inactive) | > 100 µM (inactive) |
| Cc1cccc(NS(=O)(=O)c2ccc(/N=N/c3c(O)c(C(=O)O)cc4ccccc34)cc2)n1 | > 100 µM (inactive) |  | > 100 µM (inactive) | > 100 µM (inactive) | > 100 µM (inactive) | > 100 µM (inactive) | > 100 µM (inactive) | > 100 µM (inactive) | > 100 µM (inactive) | > 100 µM (inactive) | > 100 µM (inactive) | > 100 µM (inactive) | > 100 µM (inactive) | > 100 µM (inactive) | > 100 µM (inactive) | > 100 µM (inactive) | > 100 µM (inactive) | > 100 µM (inactive) | > 100 µM (inactive) | > 100 µM (inactive) |
| COC(=O)C1(NC(=O)C(CC(=O)OCc2ccccc2)NC(=O)OC(C)(C)C)CC1 (stereo not drawn) (Boc-[ξD](OBn)-[Ac3c]-OMe) | > 100 µM (inactive) | > 100 µM (inactive) | > 100 µM (inactive) | > 100 µM (inactive) | > 100 µM (inactive) | > 100 µM (inactive) | > 100 µM (inactive) | > 100 µM (inactive) | > 100 µM (inactive) | > 100 µM (inactive) | > 100 µM (inactive) | > 100 µM (inactive) | > 100 µM (inactive) | > 100 µM (inactive) | > 100 µM (inactive) | > 100 µM (inactive) | > 100 µM (inactive) | > 100 µM (inactive) | 1.58 µM (inactive) |  |
| CCCCCN1C(=O)C(Cc2ccccc2)N=C(c2ccc(O)cc2)c2cc(Cl)ccc21 (stereo not drawn) | 13.6 µM (inactive) | > 33.7 µM (inactive) | 13 µM (inactive) | 7.94 µM (inactive) | 23.7 µM (inactive) | 10.7 µM (inactive) | 6.73 µM (inactive) | 9.98 µM (inactive) | 17.3 µM (inactive) | 7.57 µM (inactive) | 7.43 µM (inactive) | 17.3 µM (inactive) | 22.3 µM (inactive) |  | 8.73 µM (inactive) | 22.2 µM (inactive) | 14.6 µM (inactive) | 9.35 µM (inactive) | 10.3 µM (inactive) | 2.97 µM (inactive) |
| C1=C(c2ccccc2)Nc2nnnn2C1c1ccccc1 (stereo not drawn) | 47.2 µM (inactive) | 37.2 µM (inactive) | 23.6 µM (inactive) | 9.93 µM (inactive) | 38.5 µM (inactive) |  | 83.4 µM (inactive) | 7.66 µM (inactive) | > 100 µM (inactive) |  | 47.4 µM (inactive) | > 100 µM (inactive) | 93.3 µM (inactive) | 16.7 µM (inactive) | 32.7 µM (inactive) | 25.1 µM (inactive) | 27.5 µM (inactive) | 18.6 µM (inactive) | 46.2 µM (inactive) | 12.1 µM (inactive) |
| CC(C)C(Sc1nc(N)nc2nc[nH]c12)C(=O)O (stereo not drawn) | > 100 µM (inactive) | > 100 µM (inactive) | > 100 µM (inactive) | > 100 µM (inactive) | > 100 µM (inactive) |  | > 100 µM (inactive) | > 100 µM (inactive) | > 100 µM (inactive) | > 100 µM (inactive) | > 100 µM (inactive) | > 100 µM (inactive) | > 100 µM (inactive) | > 100 µM (inactive) | > 100 µM (inactive) |  | > 100 µM (inactive) | > 100 µM (inactive) | > 100 µM (inactive) | > 100 µM (inactive) |
| O=C(CSCC(=O)N/N=C/c1ccc2c(c1)OCO2)N/N=C/c1ccc2c(c1)OCO2 | > 100 µM (inactive) | > 100 µM (inactive) | > 100 µM (inactive) | 85.7 µM (inactive) | > 100 µM (inactive) | > 100 µM (inactive) | > 100 µM (inactive) | 63 µM (inactive) | > 100 µM (inactive) | 49.2 µM (inactive) | 40.2 µM (inactive) | > 100 µM (inactive) | > 100 µM (inactive) | > 100 µM (inactive) | > 100 µM (inactive) | > 100 µM (inactive) | > 100 µM (inactive) | > 100 µM (inactive) | 52.6 µM (inactive) |  |
| COc1ccc(Nc2nn3c(=O)c4c(C)c(C)sc4nc3s2)cc1 | 23.2 µM (inactive) |  | 41.4 µM (inactive) | 26.7 µM (inactive) | 29.1 µM (inactive) | 27.3 µM (inactive) | 42.2 µM (inactive) | 34.8 µM (inactive) | 78.7 µM (inactive) | 32.2 µM (inactive) | 67.8 µM (inactive) | 29.1 µM (inactive) | 52.4 µM (inactive) | 19.7 µM (inactive) | 5.98 µM (inactive) | 33 µM (inactive) | 35.6 µM (inactive) | 37.9 µM (inactive) | 71 µM (inactive) | 9.84 µM (inactive) |
| Cc1cccc(C[C@@]2(SCc3ccccc3)C(C)(C)[C@@H]3CC[C@@]2(C)C3)n1 | 17.6 µM (inactive) | 15.3 µM (inactive) | 15.5 µM (inactive) | 14.7 µM (inactive) | 23.4 µM (inactive) | 14.3 µM (inactive) | 15.1 µM (inactive) | 13.9 µM (inactive) | 14 µM (inactive) | 15.5 µM (inactive) |  | 15.6 µM (inactive) | 18 µM (inactive) | 16.3 µM (inactive) | 16.1 µM (inactive) | 23.3 µM (inactive) | 13.9 µM (inactive) | 16.6 µM (inactive) | 13.7 µM (inactive) | 14.6 µM (inactive) |
| COc1cccc(/C=C2\CCCc3ccccc3C2=O)c1 | 13.1 µM (inactive) |  | 26.4 µM (inactive) | 13.3 µM (inactive) | 16.1 µM (inactive) | 13.4 µM (inactive) | 17.9 µM (inactive) | 13.6 µM (inactive) | 13.8 µM (inactive) | 19.6 µM (inactive) | 18.8 µM (inactive) | 17.1 µM (inactive) | 15.3 µM (inactive) |  | 10 µM (inactive) | 17.1 µM (inactive) | 13.8 µM (inactive) | 15 µM (inactive) | 12.9 µM (inactive) | 13 µM (inactive) |
| O=c1[nH][nH]c(=O)n1Cc1ccccc1 | > 100 µM (inactive) | > 100 µM (inactive) |  | > 100 µM (inactive) |  |  |  | > 100 µM (inactive) | > 100 µM (inactive) | > 100 µM (inactive) | > 100 µM (inactive) | > 100 µM (inactive) | > 100 µM (inactive) | > 100 µM (inactive) | > 100 µM (inactive) | > 100 µM (inactive) | > 100 µM (inactive) | > 100 µM (inactive) | > 100 µM (inactive) | > 100 µM (inactive) |

— ChEMBL document CHEMBL1201862, “PubChem BioAssay data set” (2004)
